Laboratory results reported in US20120196766A1, “Therapeutic Use of Farnesyltransferase Inhibitors and Methods of Monitoring the Efficacy Thereof” (priority 2004, published 2012).

Columns and labels:
[1] = tested on: BALB/c mice; assay: LPS-induced cytokine production in vivo (murine model of LPS-induced inflammation); conditions: Mus musculus; 50 mg/kg oral before LPS; 2 hours, first experiment; read-out: inhibition of MIP-1α production
Description: The experiments were performed on female BALB/c mice (6-7 week old; Charles River Laboratories, Inc. MA). […] The control mice received the vehicle (20% cyclodextran) only. 20 μg LPS (Sigma), diluted in PBS, was injected into each mouse intraperitoneally. Blood samples were collected either by eye bleeding or cardiac puncture at 1 and 2 hours after LPS injection in one experiment, and at 2 and 3 hours after LPS injection in a second experiment. Plasma samples were collected by centrifugation, and stored at ≦−20° C. before being tested for cytokines using individual ELISA kits or Luminex analysis (see below).
(§1) Human IL-6, IL18, IL1β, MCP-1, MMP-9, and mouse IL-6, IL18, TNFα, MCP-1 and IL-1β were measured with ELISA kits (R&D Systems) according to the manufacturer's instructions.
Samples were tested for cytokines using the Bio-plex cytokine assay kit (Bio-Rad Laboratories, Inc.) according to the manufacturer's instructions. Briefly, 50 μL anti-cytokine antibody conjugated beads were added to wells of a filter plate pre-equilibrated with assay buffer. The beads were washed, then 50 μL of undiluted cell culture supernatant or 4-fold diluted plasma samples were added and incubated for 2 hours. Biotinylated anti-cytokine antibody (25 μL) was added to each well and the plate was incubated with shaking for 1.5 hours. Streptavidin-PE (50 μL) was added to each well and the plate was incubated with shaking for 45 min. between incubations, wells were washed 3 times with 100 μL wash buffer and unbound analytes were filtered using a vacuum manifold. Following the last wash step, 125 μL of assay buffer was added to each well and the plate was placed on a shaker for 10 min. The plate was read on a Luminex^100 instrument (Luminex Corporation, Austin, Tex.) according to the manufacturer's instructions. The concentration of cytokine was determined from a standard curve assayed at the same time.

[2] = tested on: NF-κB; conditions: cited from earlier work
[3] = tested on: human PBMC; assay: LPS-induced cytokine production in human PBMC; format: cell-based; conditions: 2 or 5 μM, LPS 10 ng/ml, 10% FBS
Description: as §1
Heparinized human blood (25 ml) from a healthy donor was overlaid into a 50 ml conical tubes containing 20 ml Ficoll-Paque, and centrifuged for 20 min at 2000 rpm at room temperature and then allowed to stop without using the brake on the centrifuge. The upper layer was aspirated, leaving the mononuclear cell layer undisturbed at the interface. Cells were carefully transferred the to a new […] conical tube. The conical tube was filled with PBS, mixed and centrifuged at 1500 rpm for 15 minutes at room temperature. The supernatant was carefully and completely removed. The cell pellet was resupended in 50 ml of PBS and centrifuged at 1500 rpm for 5 minutes. This wash step was repeated once more. The cells were counted and resuspended cells at 1.7×10^6/ml in low-endotoxin RPMI1640/10% FBS.
Human PBMC (180 μl at 1.7×10^6/ml) were pipetted into each well of a 96-well plate. […] Cells were incubated at 37° C., under 5% CO2 for 1 hour, then 10 μl LPS (diluted in medium) were added per well to reach a final concentration of 10 ng/ml. Cells were cultured at 37° C., under 5% CO2. Supernatants were collected at 16 hours, 24 hours and 40 hours of LPS treatment, and IL-6 secretion was quantified.

[4] = molecular target: farnesyltransferase (Homo sapiens, UniProt P49354+P49356); conditions: cited from earlier work

SMILES: CCC(C)(C)C(=O)O[C@H]1C[C@@H](C)C=C2C=C[C@H](C)[C@H](CC[C@@H]3C[C@@H](O)CC(=O)O3)[C@H]21 [simvastatin]
- inhibition at 50 mg/kg [1]: ~50%

SMILES: NC(=O)N1CCC(CC(=O)N2CCC([C@H]3c4ncc(Br)cc4CCc4cc(Cl)cc(Br)c43)CC2)CC1 [SCH 66336, (+)-(R)-4-[2-[4-(3,10-dibromo-8-chloro-5,6-dihydro-11H-benzo[5,6]cyclohepta[1,2-b]pyridin-11-yl)piperidin-1-yl]-2-oxoethyl]piperidine-1-carboxamide]
- TNF-α induced NF-κB activity [2]: inhibited

SMILES: Cn1cncc1C(N)(c1ccc(Cl)cc1)c1ccc2c(c1)c(-c1cccc(Cl)c1)cc(=O)n2C (single isomer, unassigned) [less active enantiomer]
- LPS-induced IL-6 production [3]: No difference in production
- fold less active than tipifarnib (R115777) for inhibition of farnesyltransferase [4]: about 100 fold
